From patent publication US20200171051A1, “METHODS FOR TREATING RENAL INJURY BY […] UPREGULATING P21” (RENIBUS THERAPEUTICS, INC., priority 2018, published 2020)

Key:
[1] = in vivo; cited from earlier work
renal cortical p21 [2] = assay: Glycerol AKI model: renal cortical p21 mRNA (RT-PCR, factored by GAPDH) and p21 protein (ELISA); assay type: in vivo, male CD-1 mice
Experimental: (§1) The present inventors conducted studies to better understand the factors that drive renal p21 expression during AKI. All experiments were performed using male CD-1 mice (35-40 grams, Charles River Laboratories, Wilmington, Del.) maintained under routine vivarium conditions with free food and water access. The AKI models were approved by the institution's Animal Care and Utilization Committee). All surgical procedures were conducted under deep pentobarbital anesthesia (40-50 mg/Kg IP).
Mice were briefly anesthetized with isoflurane, and then subjected to intramuscular glycerol injection (administered in equally divided doses into each hind limb). The glycerol dose ware varied (6, 6.5, 7, 7.5, 8, 8.5, 9 ml/Kg; n˜2-3 per dose) in order to produce variable degrees of renal injury. At 4 hrs post glycerol injection, a tail vein tail vein blood sample (˜25 μl) was obtained, and at 18 hrs, the mice were deeply anesthetized with pentobarbital. The abdominal cavity was opened through a midline abdominal incision, a terminal vena cava blood sample was obtained, the kidneys were removed, iced, and renal cortical samples were cut and extracted for both protein and total RNA (RNeasy Mini+; Qiagen; Germantown, Md.). A terminal urine sample was collected from the urinary bladder. Plasma samples were assayed for blood urea nitrogen (BUN) and creatinine (Cr). Johnson A C, Zager R A. Plasma and urinary p21: potential biomarkers of AKI and renal aging. Am J Physiol 2018; Aug. 1. doi: 10.1152/ajprenal.00328.2018. [Epub ahead of print]. Renal cortical, plasma, and urinary p21 concentrations were determined with a ‘sandwich’ ELISA which employs two distinct monoclonal antibodies (capture; detection) directed against two different p21 epitopes, conferring p21 specificity; (#2120721; Abcam, Cambridge, Mass.). Renal cortical p21 mRNA levels were determined by RT-PCR, factored by GAPDH. Ten normal mice provided control plasma, urine, and tissue values for comparisons.
To assess renal cortical changes at an earlier time point than that noted above (18 hrs post glycerol injection), an additional 5 mice were subjected to glycerol injection (8.5 ml/Kg) and 4 hrs later, renal cortical protein/RNA samples were obtained for use in the above noted assays. The results were contrasted to those observed in 5 normal mice.
Pifithrin-α is a stable, water soluble, p53 inhibitor which blocks activation of p53 responsive genes. Dagher P C, Mai E M, Hato T, Lee S Y, Anderson M D Karozos S C Mang H E, Knipe N L, Plotkin Z, Sutton T A: The p53 inhibitor pifithrin can stimulate fibrosis in a rat model of ischemic acute kidney injury. Am J Physiol Renal Physiol 302: F284-F291, 2012; Komarov P G, Komarova E A, Kondratov R V, Christov-Tselkov K, Coon J S, Chernov M V et al. A chemical inhibitor of p53 that protects mice from the side effects of cancer therapy. Science 285: 1733-1737, 1999. As such, it has been used to differentiate p53-dependent vs. p53-independent pathways. To further explore the potential role of p53 on p21 gene activation, 3 mice were injected IP with 10 mg/Kg pifithrin-α (10% DMSO in saline; EMD Millipore #506154; Burlington, Mass.). Three additional mice received vehicle injection. Immediately thereafter the mice were injected with […] glycerol. Four hrs post glycerol injection, renal cortical tissues were analyzed for p21 and p53 mRNAs.
Inflammation can induce p21 gene activation via the inflammatory cascade (1, 2). Basile J R, Eichten A, Zacny V, Münger K. NF-kappaB-mediated induction of p21(Cip1/Waf1) by tumor necrosis factor alpha induces growth arrest and cytoprotection in normal human keratinocytes. Mol Cancer Res. 2003; 4: 262-270; Bellido T, O'Brien C A, Roberson P K, Manolagas S C: Transcriptional Activation of the p21WAF1,CIP1,SDI1 Gene by Interleukin-6 Type Cytokines. J Biol Chem 1998; 273:21137-21144. […]

[3] = relative to cortisol = 1; cited from earlier work
renal cortical p21 [4] = assay: Normal mice (no renal injury): renal cortical p21 protein and mRNA; assay type: in vivo, male CD-1 mice
Experimental: The present inventors conducted studies to better understand the factors that drive renal p21 expression during AKI. All experiments were performed using male CD-1 mice (35-40 grams, Charles River Laboratories, Wilmington, Del.) maintained under routine vivarium conditions with free food and water access. The AKI models were approved by the institution's Animal Care and Utilization Committee). All surgical procedures were conducted under deep pentobarbital anesthesia (40-50 mg/Kg IP). Mice were briefly anesthetized with isoflurane, and then subjected to intramuscular glycerol injection (administered in equally divided doses into each hind limb). […] At 4 hrs post glycerol injection, a tail vein tail vein blood sample (˜25 μl) was obtained, and at 18 hrs, the mice were deeply anesthetized with pentobarbital. The abdominal cavity was opened through a midline abdominal incision, a terminal vena cava blood sample was obtained, the kidneys were removed, iced, and renal cortical samples were cut and extracted for both protein and total RNA (RNeasy Mini+; Qiagen; Germantown, Md.). A terminal urine sample was collected from the urinary bladder. Plasma samples were assayed for blood urea nitrogen (BUN) and creatinine (Cr). Johnson A C, Zager R A. Plasma and urinary p21: potential biomarkers of AKI and renal aging. Am J Physiol 2018; […] [Epub ahead of print]. Renal cortical, plasma, and urinary p21 concentrations were determined with a ‘sandwich’ ELISA which employs two distinct monoclonal antibodies (capture; detection) directed against two different p21 epitopes, conferring p21 specificity; (#2120721; Abcam, Cambridge, Mass.). Renal cortical p21 mRNA levels were determined by RT-PCR, factored by GAPDH. Ten normal mice provided control plasma, urine, and tissue values for comparisons. To determine the impact of DXM on renal p21 expression in the absence of renal injury, 5 mice were injected with DXM as above, and 4 hrs later p21 protein/mRNA levels were measured and compared to normal values. Given an unexpected finding that corticosteroid injection increased, rather than suppressed, p21 expression, and given that endogenous cortisol levels were markedly elevated post-glycerol injection, we questioned whether glucocorticoid receptor (GCR) blockade would decrease p21 expression. […] Four hrs later, the kidneys were removed and renal cortices were analyzed for p21 mRNA and protein levels. Four mice, treated with mifepristone in the absence of glycerol injection, served to evaluate its effects in the absence of glycerol injection.

renal cortical p53 mRNA = assay: Glycerol AKI model: renal cortical p53 mRNA; assay type: in vivo, male CD-1 mice; conditions: 4 hr post glycerol + pifithrin-α 10 mg/Kg IP; mean ± SEM; glycerol alone 0.75±0.02; NS
Experimental: as §1
Mice were briefly anesthetized with isoflurane, and then subjected to intramuscular glycerol injection (administered in equally divided doses into each hind limb). The glycerol dose ware varied (6, 6.5, 7, 7.5, 8, 8.5, 9 ml/Kg; n˜2-3 per dose) in order to produce variable degrees of renal injury. […] Renal cortical, plasma, and urinary p21 concentrations were determined with a ‘sandwich’ ELISA which employs two distinct monoclonal antibodies (capture; detection) directed against two different p21 epitopes, conferring p21 specificity; (#2120721; Abcam, Cambridge, Mass.). Renal cortical p21 mRNA levels were determined by RT-PCR, factored by GAPDH. […]
Pifithrin-α is a stable, water soluble, p53 inhibitor which blocks activation of p53 responsive genes. […] Four hrs post glycerol injection, renal cortical tissues were analyzed for p21 and p53 mRNAs. […]

[5] = 4 hr post glycerol kidneys, DXM 250 μg IP 30 min before glycerol 8.5 ml/Kg
[6] = normal mice, within 4 hrs of DXM injection (250 μg IP)
[7] = glycerol treated mice, 4 hrs, MFP 30 mg/Kg, in words
[8] = control mice, 4 hrs post MFP 30 mg/Kg, in words

C[C@]12CCC(=O)C=C1CC[C@@H]1[C@@H]2[C@@H](O)C[C@@]2(C)[C@H]1CC[C@]2(O)C(=O)CO [Cortisol]
Terminal half-life [1]: 8 h
effect on 4 hr post glycerol p21 mRNA levels (renal cortical p21 [2]; cortisol 1 mg/Kg IP 30 min before glycerol 8.5 ml/Kg, in words): to the same degree as did DXM injection
Glucocorticoid potency [3]: 1

C[C@]12CCC(=O)C=C1CC[C@@H]1[C@@H]2C(=O)C[C@@]2(C)[C@H]1CC[C@]2(O)C(=O)CO [Cortisone]
Glucocorticoid potency [3]: 0.8

C[C@@H]1C[C@H]2[C@@H]3CCC4=CC(=O)C=C[C@]4(C)[C@@]3(F)[C@@H](O)C[C@]2(C)[C@@]1(O)C(=O)CO [Dexamethasone]
increase in p21 mRNA (renal cortical p21 [2]; [5]): ~3 fold
increase in p21 protein (renal cortical p21 [2]; [5]): ~3 fold
increase in renal cortical p21 mRNA (renal cortical p21 [4]; [6]): 15 ×
increase in renal cortical p21 protein (renal cortical p21 [4]; [6]): 10 ×

C[C@H]1C[C@@H]2[C@H]([C@@H](O)C[C@@]3(C)[C@H]2CC[C@]3(O)C(=O)CO)[C@@]2(C)C=CC(=O)C=C12 [Methylprednisolone]
Terminal half-life [1]: 18 to 40 h

CC#C[C@]1(O)CC[C@H]2[C@@H]3CCC4=CC(=O)CCC4=C3[C@@H](c3ccc(N(C)C)cc3)C[C@@]21C [Mifepristone]
effect on p21 protein levels (renal cortical p21 [2]; [7]): normalized
effect on post glycerol p21 mRNA levels (renal cortical p21 [2]; [7]): modest reduction
effect on p21 mRNA values (renal cortical p21 [4]; [8]): no significant decrease
effect on p21 protein values (renal cortical p21 [4]; [8]): no significant decrease

C[C@]12C=CC(=O)C=C1CC[C@@H]1[C@@H]2[C@@H](O)C[C@@]2(C)[C@H]1CC[C@]2(O)C(=O)CO [Prednisolone]
Terminal half-life [1]: 16 to 36 h
Glucocorticoid potency [3]: 4

C[C@]12C=CC(=O)C=C1CC[C@@H]1[C@@H]2C(=O)C[C@@]2(C)[C@H]1CC[C@]2(O)C(=O)CO [Prednisone]
Terminal half-life [1]: 16 to 36 h

C[C@]12C=CC(=O)C=C1CC[C@H]1[C@@H]3C[C@@H](O)[C@](O)(C(=O)CO)[C@@]3(C)C[C@H](O)[C@@]12F [Triamcinolone]
Terminal half-life [1]: 12 to 36 h
Glucocorticoid potency [3]: 5

Cc1ccc(C(=O)Cn2c3c(sc2=N)CCCC3)cc1 [pifithrin-α, Pifithrin-α]
renal cortical p21 mRNA (renal cortical p21 [2]; 4 hr post glycerol + pifithrin-α 10 mg/Kg IP, mean ± SEM, controls 0.34±0.1, glycerol alone 1.43±0.11): 1.71±0.08
renal cortical p53 mRNA (renal cortical p53 mRNA): 0.7±0.03
